In US20250092014A1, “COMPOUNDS AND METHODS OF ACTIVATING LIPOPROTEIN LIPASE” (Metrea Biosciences, Inc., priority 2021, published 2025):

The compounds below were run against T1, LPL:sGPIHBP1 complex (Homo sapiens, UniProt P06858) (assay: RB assay (LPL:sGPIHBP1 pre-incubated with ANGPTL4, RB substrate)). Details: read-out: RB qAC50.
T1 sequence (P06858 28-475): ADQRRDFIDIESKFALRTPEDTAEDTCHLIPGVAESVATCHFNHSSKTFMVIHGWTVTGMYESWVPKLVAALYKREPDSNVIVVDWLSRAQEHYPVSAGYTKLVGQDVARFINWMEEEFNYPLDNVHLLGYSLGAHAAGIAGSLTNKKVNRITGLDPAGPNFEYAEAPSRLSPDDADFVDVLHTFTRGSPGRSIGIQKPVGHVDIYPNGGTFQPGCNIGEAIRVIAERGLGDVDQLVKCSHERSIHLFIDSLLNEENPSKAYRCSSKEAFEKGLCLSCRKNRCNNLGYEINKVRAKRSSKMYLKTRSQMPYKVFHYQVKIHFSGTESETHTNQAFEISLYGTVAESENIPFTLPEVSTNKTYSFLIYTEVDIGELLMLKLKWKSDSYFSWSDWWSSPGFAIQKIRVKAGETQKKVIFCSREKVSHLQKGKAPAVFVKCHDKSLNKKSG
T1 sequence (Q8IV16 21-151 partner limits assumed): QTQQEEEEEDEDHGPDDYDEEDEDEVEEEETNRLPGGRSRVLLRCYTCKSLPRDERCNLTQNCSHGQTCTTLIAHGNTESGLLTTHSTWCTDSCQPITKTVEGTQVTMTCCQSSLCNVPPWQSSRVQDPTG
Type: biochemical
Method: The assay was performed in black 1536-well plates using purified proteins. To identify compounds that stimulate LPL activity either by directly activating LPL or by inhibiting the antagonist ANGPTL4, the LPL:sGPIHBP1 complex was pre-incubated with ANGPTL4 to decrease LPL activity by 80%. After a 60 min pre-incubation, the reaction was started by adding the RB substrate. 30 min after RB addition, the enzymatic reaction was stopped using SDS. Fluorescence intensity was measured 2 h after stopping the reaction.
20 or 40 nl of compound solution in 100% DMSO were placed in test plate. Then was added LPL:sGPIHBP1 to all wells (diluted in assay buffer to 5 nM; 2 μl/well). This was followed by an addition of ANGPTL4 to compounds and neutral controls (diluted in assay buffer to 20 nM; 1 μl/well). A buffer solution was added to the stimulator control (1 μl/well). The plates were then centrifuged and pre-incubated for 60 min at RT. The reaction was started by adding substrate to all wells (diluted in assay buffer to 40 μM, 1 μl/well). The plated were centrifuged (800 rpm for 1 min) and incubated 30 min at RT (=reaction time). The reaction was stopped by adding SDS to all wells (diluted in water to 2.5%, 2 μl/well); incubated 2 h at RT. The fluorescence intensity (ex 540 nm/em 590 nm) was measured on a Pherastar (BMG) using 5 flashes.
For Cc1ccc2c(c1)c(C(=O)Nc1cc(C(=O)Nc3ccc(F)cc3CC(=O)O)ccc1N1CCCCC1)nn2CC(F)(F)F [Compound 142, 2-(5-fluoro-2-(3-(5-methyl-1-(2,2,2-trifluoroethyl)-1H-indazole-3-carboxamido)-4-(piperidin-1-yl)benzamido)phenyl)acetic acid], the EC50 was greater than 7.1 µM.
For Cc1ccc2c(C(=O)Nc3cc(C(=O)Nc4ccc(F)cc4CC(=O)O)ccc3N3CCCCC3)nn(CC(F)(F)F)c2c1 [Compound 143, 2-(5-fluoro-2-(3-(6-methyl-1-(2,2,2-trifluoroethyl)-1H-indazole-3-carboxamido)-4-(piperidin-1-yl)benzamido)phenyl)acetic acid], the EC50 was 5 µM.
With Cc1cccc2c(C(=O)Nc3cc(C(=O)Nc4ccc(F)cc4CC(=O)O)ccc3N3CCCCC3)nn(CC(F)(F)F)c12 [Compound 144, 2-(5-fluoro-2-(3-(7-methyl-1-(2,2,2-trifluoroethyl)-1H-indazole-3-carboxamido)-4-(piperidin-1-yl)benzamido)phenyl)acetic acid] the EC50 was 5.8 µM.
O=C(O)Cc1cc(F)ccc1NC(=O)c1ccc(N2CCCCC2)c(NC(=O)c2nn(CC(F)(F)F)c3c2CCC3)c1 [Compound 145, 2-(5-fluoro-2-(4-(piperidin-1-yl)-3-(1-(2,2,2-trifluoroethyl)-1,4,5,6-tetrahydrocyclopenta[c]pyrazole-3-carboxamido)benzamido)phenyl)acetic acid] was tested, and the EC50 was 15 µM.
CC(n1nc(C(=O)Nc2cc(C(=O)Nc3ccc(F)cc3CC(=O)O)ccc2N2CCCCC2)c2ccccc21)C(F)(F)F (centres unmarked) [Compound 146, 2-(5-fluoro-2-(4-(piperidin-1-yl)-3-(1-(1,1,1-trifluoropropan-2-yl)-1H-indazole-3-carboxamido)benzamido)phenyl)acetic acid] was tested, and the EC50 was greater than 7.1 µM.
With CC(C1CCOCC1)n1nc(C(=O)Nc2cc(C(=O)Nc3ccc(F)cc3CC(=O)O)ccc2N2CCCCC2)c2ccccc21 (centres unmarked) [Compound 148, 2-(5-fluoro-2-(4-(piperidin-1-yl)-3-(1-(1-(tetrahydro-2H-pyran-4-yl)ethyl)-1H-indazole-3-carboxamido)benzamido)phenyl)acetic acid] the EC50 was greater than 25 µM.
O=C(O)Cc1cc(C(F)(F)F)ccc1NC(=O)c1ccc(N2CCCCC2)c(NC(=O)c2nn(CC(F)(F)F)c3ccccc23)c1 [Example 22] showed an EC50 of 4.3 µM.
In the case of CCC(C(=O)O)c1cc(F)ccc1NC(=O)c1ccc(N2CCCCC2)c(NC(=O)c2nn(CC(F)(F)F)c3ccccc23)c1 (centres unmarked) [Example 28], the EC50 is reported as 4.2 µM.
O=C(O)Cc1cc(F)ccc1NC(=O)c1ccc(N2CCC(F)(F)CC2)c(NC(=O)c2nn(CC(F)(F)F)c3ccccc23)c1 [Example 40] showed an EC50 of 3.5 µM.
N#CC1CCN(c2ccc(C(=O)Nc3ccc(F)cc3CC(=O)O)cc2NC(=O)c2nn(CC(F)(F)F)c3ccccc23)CC1 [Example 48] gave an EC50 greater than 25 µM.
Compound O=C(O)Cc1cc(F)ccc1NC(=O)c1ccc(N2CC3(CCC3)C2)c(NC(=O)c2nn(CC(F)(F)F)c3ccccc23)c1 [Example 49] has an EC50 of 20 µM.
O=C(O)Cc1cc(F)ccc1NC(=O)c1ccc(N2CCCC2)c(NC(=O)c2nn(CC(F)(F)F)c3ccccc23)c1 [Example 50] was tested, and the EC50 was 24 µM.
O=C(O)Cc1cc(F)ccc1NC(=O)c1ccc(N2CC3CC3C2)c(NC(=O)c2nn(CC(F)(F)F)c3ccccc23)c1 (centres unmarked) [Example 52] was tested, and the EC50 was 5 µM.
In the case of O=C(O)Cc1cc(F)ccc1NC(=O)c1ccc(N2CCC3(CC3)C2)c(NC(=O)c2nn(CC(F)(F)F)c3ccccc23)c1 [Example 53], the EC50 is reported as 6.8 µM.
For O=C(O)Cc1cc(F)ccc1NC(=O)c1ccc(N2C3CCC2CC3)c(NC(=O)c2nn(CC(F)(F)F)c3ccccc23)c1 [Example 54], the EC50 was 6.9 µM.
O=C(O)Cc1cc(F)ccc1NC(=O)c1ccc(N2CCOCC2)c(NC(=O)c2nn(CC(F)(F)F)c3ccccc23)c1 [Example 56] showed an EC50 of 15 µM.
In the case of CN1CCN(c2ccc(C(=O)Nc3ccc(F)cc3CC(=O)O)cc2NC(=O)c2nn(CC(F)(F)F)c3ccccc23)CC1 [Example 57], the EC50 is reported as greater than 7.1 µM.
O=C(O)Cc1cc(F)ccc1NC(=O)c1ccc(N2CCCCC2=O)c(NC(=O)c2nn(CC(F)(F)F)c3ccccc23)c1 [Example 59] was tested, and the EC50 was greater than 25 µM.
O=C(O)Cc1cc(F)ccc1NC(=O)c1ccc(N2CCOC2=O)c(NC(=O)c2nn(CC(F)(F)F)c3ccccc23)c1 [Example 60] showed an EC50 greater than 25 µM.
Compound CC1(C)CCN(c2ccc(C(=O)Nc3ccc(F)cc3CC(=O)O)cc2NC(=O)c2nn(CC(F)(F)F)c3ccccc23)CC1 [Example 61] has an EC50 of 3.6 µM.
In the case of O=C(O)Cc1cc(F)ccc1NC(=O)c1ccc(N2CCCC(F)(F)C2)c(NC(=O)c2nn(CC(F)(F)F)c3ccccc23)c1 [Example 62], the EC50 is reported as greater than 7.1 µM.
COC1CCN(c2ccc(C(=O)Nc3ccc(F)cc3CC(=O)O)cc2NC(=O)c2nn(CC(F)(F)F)c3ccccc23)CC1 [Example 65] showed an EC50 greater than 7.1 µM.
For O=C(O)Cc1cc(F)ccc1NC(=O)c1ccc(N2CCS(=O)(=O)CC2)c(NC(=O)c2nn(CC(F)(F)F)c3ccccc23)c1 [Example 66], the EC50 was greater than 25 µM.
CC1CCCC(C)N1c1ccc(C(=O)Nc2ccc(F)cc2CC(=O)O)cc1NC(=O)c1nn(CC(F)(F)F)c2ccccc12 (centres unmarked) [Example 68] was tested, and the EC50 was greater than 7.1 µM.
Work on NC(=O)C1CCCCN1c1ccc(C(=O)Nc2ccc(F)cc2CC(=O)O)cc1NC(=O)c1nn(CC(F)(F)F)c2ccccc12 (centres unmarked) [Example 71] yielded an EC50 greater than 7.1 µM.
CC1CC(C)CN(c2ccc(C(=O)Nc3ccc(F)cc3CC(=O)O)cc2NC(=O)c2nn(CC(F)(F)F)c3ccccc23)C1 (centres unmarked) [Example 74] was tested, and the EC50 was greater than 7.1 µM.
Compound O=C(O)Cc1cc(F)ccc1NC(=O)c1ccc(N2CCC(O)CC2)c(NC(=O)c2nn(CC(F)(F)F)c3ccccc23)c1 [Example 75] has an EC50 greater than 25 µM.

Each compound was assayed against T2, LPL (native bovine milk protein) inactivated by ANGPTL4 (Bos taurus, UniProt P11151) (assay: LPL ANGPTL4 protection assay (LPL fluorescence assay, resorufin butyrate substrate)). Details: LPL activation activity, LPL 2.5 nM, ANGPTL4 20 nM.
T2 construct: from tissue; host or cells: bovine milk (LPL); E. coli (GST-ANGPTL4)
T2 sequence (P11151 29-478): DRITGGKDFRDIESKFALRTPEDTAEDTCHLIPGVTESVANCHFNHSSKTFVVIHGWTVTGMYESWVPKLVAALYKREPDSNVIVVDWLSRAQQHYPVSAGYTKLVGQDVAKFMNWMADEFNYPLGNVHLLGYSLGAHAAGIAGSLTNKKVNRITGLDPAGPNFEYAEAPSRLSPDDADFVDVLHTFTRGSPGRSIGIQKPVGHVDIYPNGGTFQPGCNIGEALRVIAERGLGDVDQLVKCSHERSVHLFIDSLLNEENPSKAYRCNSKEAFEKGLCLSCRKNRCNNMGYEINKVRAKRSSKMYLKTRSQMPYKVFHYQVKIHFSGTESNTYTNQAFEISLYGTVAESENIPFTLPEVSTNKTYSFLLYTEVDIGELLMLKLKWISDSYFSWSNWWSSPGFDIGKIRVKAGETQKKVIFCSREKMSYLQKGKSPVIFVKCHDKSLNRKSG
Type: biochemical
Method: LPL is inactivated by angiopoietin-like 4 (ANGPTL4). Compounds of the present disclosure were for activity using the following protection assay. Briefly, the assay was performed in a black opaque 96-well microtiter plate with final volume of 100 μL using a buffer consisting of 50 mM HEPES (pH 7.2), 150 mM NaCl and 0.03% Triton X-100. Compounds were prepared as 10 mM stocks in DMSO, with subsequent serial dilutions performed in DMSO. Two microliters of test compounds were added to the microtiter plate, followed by 49-PL of LPL (native bovine milk protein affinity purified using heparin-affinity chromatography) in assay buffer. The plate contents were mixed using an orbital shaker and allowed to incubate for 5 minutes at room temperature. The enzymatic assay was initiated by the addition of a mixture of 49 μL of 50 μM resorufin butyrate (Santa Cruz #sc-208302; prepared from a 10 mM DMSO stock) and ANGPTL4 (N-terminal GST construct consisting of residues 26-164 expressed in E. coli) in assay buffer. The final concentrations of LPL and ANGPTL4 were 2.5 nM and 20 nM, respectively. The assay was allowed to proceed at 30° C. for 25 minutes with kinetic monitoring (Ex560/Em585) followed by an endpoint reading which was used for analysis.
Data was analyzed in Graphpad Prism (version 6.0, GraphPad Software, Inc., San Diego, CA) using a variable slope four parameter fit of the equation:
Y=Bottom+(Top-Bottom)/(1+10^((Log EC50−X)*HillSlope)),
where X is the concentration of test compound, Y corresponds to the amount of product expressed in relative fluorescence units, and Top and Bottom refer to the plateaus of the curve. Percent activation (protection) of test compound was calculated relative to zero effect wells (ZEW; LPL, ANGPTL4 and substrate) and maximum effect wells (MEW; LPL plus substrate): ((test well−ZEW)/(MEW−ZEW))*100.
For O=C(O)Cc1cc(F)ccc1NC(=O)c1ccc(N2CCCCC2)c(NC(=O)c2nn(Cc3ccccc3)c3ccccc23)c1 [Compound 159, 2-(2-(3-(1-benzyl-1H-indazole-3-carboxamido)-4-(piperidin-1-yl)benzamido)-5-fluorophenyl)acetic acid], the EC50 was 0.85 µM.
CCn1nc(C(=O)Nc2cc(C(=O)Nc3ccc(F)cc3CC(=O)O)ccc2N2CCCCC2)c2ccccc21 [Compound 160, 2-(2-(3-(1-ethyl-1H-indazole-3-carboxamido)-4-(piperidin-1-yl)benzamido)-5-fluorophenyl)acetic acid] was tested, and the EC50 was 1.66 µM.
